Laboratory results: US20180168208A1 (priority 2014, published 2018)
Like-named read-outs stand apart in the source and are kept apart here.

Experiments:
T1R1/T1R3 receptor [1] = target: T1, T1R1/T1R3 receptor (Felis catus, UniProt E3UMS2); assay: Example 8: agonist screening of transmembrane compounds on T1R1/T1R3 in HEK293 cells; format: cell-based, cat; details: for agonist profile assessment (agonist activity): transmembrane compound alone; for T1R1/T1R3 agonist: transmembrane compound tested at 0.01, 0.1 and 1 mM, HEK293 cells expressing T1R1/T1R3, intracellular calcium
Experimental: (§1) HEK293 cells that stably express T1R3 and inducibly express T1R1 were exposed to a transmembrane compound. Activation of the T1R1/T1R3 receptor was detected by a change in intracellular calcium levels using a calcium sensitive fluorescent dye and/or a luminescent reporter system. […] A FLIPR® Tetra or a FlexStation® 3 was used for data capture.
Each transmembrane compound was tested at concentrations of 0.01 mM, 0.1 mM, and 1 mM. […] To generate the dose response curves, the transmembrane compound was tested at concentrations of between 0.0001 mM and 1.0 mM in the presence of GMP and Ala.

T1R1/T1R3 receptor [2] = target: T1, T1R1/T1R3 receptor; assay: cell-based
Source text: (§2) HEK293 cells that stably express T1R3 and inducibly express T1R1 were exposed to nucleotide derivatives alone to activate the umami receptor. Activation of the T1R1/T1R3 receptor was detected by a change in intracellular calcium levels using a calcium sensitive fluorescent dye. Cells that express T1R3 but not T1R1 were used as a control. A FLIPR® Tetra or a FlexStation® 3 was used for data capture.
as §2, with “alone or in combination with one or more amino acids and/or one or more nucleotides” for “alone”, “dye and/or a luminescent reporter system.” for “dye.”
as §2, with “transmembrane compounds” for “nucleotide derivatives”, “alone or in combination with one or more amino acids and/or one or more nucleotides” for “alone”
In each experiment, serial dilutions of up to 10 mM of the transmembrane compound were added to the T1R1/T1R3-expressing cells.

T1R1/T1R3 receptor [3] = target: T1, T1R1/T1R3 receptor; assay: Example 8: PAM screening of transmembrane compounds with GMP and Ala on T1R1/T1R3 in HEK293 cells; format: cell-based, cat; details: for PAM profile assessment (PAM activity): in the presence of GMP and Alanine; for T1R1/T1R3 PAM: compound at 0.01, 0.1 and 1 mM in combination with GMP+Ala mixtures (T1-T4), PAM if response greater than sum of compound alone and GMP+Ala alone
Source text: as §1, with “to” for “to a”, “compound alone or in combination with Ala and GMP to activate the umami receptor.” for “compound.”
Dose response curves were generated for each transmembrane compound at concentrations of 0 (buffer only), 0.01, 0.1 and 1 mM, wherein each of the three concentrations of transmembrane compound was tested in combination with 0.03 mM GMP+100 mM Ala (T1); 0.6 mM GMP+10 mM Ala (T2); 0.1 mM GMP+60 mM Ala (T3) and 0.3 mM GMP+60 mM Ala (T4). The T4 mixture was also tested in a 2-fold dilution series (the T4(×) Concentration). In these experiments, the first test concentration was 2× (2 times) the T4 concentration. The subsequent test concentrations were 2-fold dilutions from that (1×, 0.5×etc.). This dilution series was tested with or without the addition of the test compound at a constant 0.3 mM concentration.
Activation of the umami receptor was also determined in the presence of 1 mM GMP+100 mM Ala to generate a “maximum” umami receptor activation level.

Compound | T1R1/T1R3 agonist (T1R1/T1R3 receptor [1]) | T1R1/T1R3 PAM (T1R1/T1R3 receptor [3]) | other results
O=C1CC(=O)N(Cc2ccccc2)C(=O)N1Cc1ccccc1 [1,3-dibenzylpyrimidine-2,4,6(1H,3H,5H)-trione] |  |  | agonist profile assessment (agonist activity) (T1R1/T1R3 receptor [1]): agonist activity; Max resp % of IMP, +Alanine (20 mM) (T1R1/T1R3 receptor [2]): 42.7%; Thres (mM), +Alanine (20 mM) (T1R1/T1R3 receptor [2]): 0.1 mM; EC50 (T1R1/T1R3 receptor [2]; EC50 (mM), +Alanine (20 mM)): 0.31 mM; EC50 (T1R1/T1R3 receptor [2]; EC50 (mM), +Alanine (20 mM) + IMP (0.2 mM)): > 0.3 mM; EC50 (T1R1/T1R3 receptor [2]; EC50 (mM), +IMP (0.2 mM), in the presence of 0.2 mM IMP): 0.52 mM; EC50 (T1R1/T1R3 receptor [2]; T1R1/T1R3 EC50 +0.2 mM IMP, +0.2 mM IMP): 0.52 ± 0.19 mM; EC50 (T1R1/T1R3 receptor [2]; T1R1/T1R3 EC50 +20 mM L-alanine): 0.31 ± 0.05 mM; EC50 (T1R1/T1R3 receptor [2]; T1R1/T1R3 EC50 +20 mM L-alanine + 0.2 mM IMP): > 0.3 mM; EC50 (T1R1/T1R3 receptor [2]; alone in buffer, read-out: T1R1/T1R3 EC50 alone in buffer): 0.26 ± 0.01 mM; EC50 (T1R1/T1R3 receptor [2]; compound alone in buffer, read-out: EC50 (mM), +buffer (alone)): 0.26 mM; Max resp % of Ala, +IMP (0.2 mM) (T1R1/T1R3 receptor [2]; in the presence of 0.2 mM IMP, relative to alanine): 35.7%; Thres (mM), +IMP (0.2 mM) (T1R1/T1R3 receptor [2]; threshold concentration in the presence of 0.2 mM IMP): 0.1 mM
O=C(CN1C(=O)C(=O)N(Cc2ccccc2)C1=O)c1ccc2c(c1)OCCCO2 [1-benzyl-3-(2-(3,4-dihydro-2H-benzo[b][1,4]dioxepin-7-yl)-2-oxoethyl)imidazolidine-2,4,5-trione] |  |  | PAM profile assessment (PAM activity) (T1R1/T1R3 receptor [3]): PAM activity
O=C(CN1C(=O)C(=O)N(Cc2ccccc2)C1=O)c1ccc(Cl)s1 [1-benzyl-3-(2-(5-chlorothiophen-2-yl)-2-oxoethyl)imidazolidine-2,4,5-trione] |  |  | PAM profile assessment (PAM activity) (T1R1/T1R3 receptor [3]): PAM activity
COC(=O)[C@H](CC(C)C)NCc1ccccc1.Cl [Benzyl-L-leucine methyl ester hydrochloride] |  |  | agonist profile assessment (agonist activity) (T1R1/T1R3 receptor [1]): agonist; PAM profile assessment (PAM activity) (T1R1/T1R3 receptor [3]): PAM activity
O=C(CN1C(=O)C(=O)N(Cc2ccccc2)C1=O)c1ccccc1 [Formula 1, 1-benzyl-3-(2-oxo-2-phenylethyl)imidazolidine-2,4,5-trione] | No | No | 
O=C(CN1C(=O)C(=O)N(Cc2ccccc2)C1=O)c1ccc2c(c1)CCC2 [Formula 2, 1-benzyl-3-(2-(2,3-dihydro-1H-inden-5-yl)-2-oxoethyl)imidazolidine-2,4,5-trione] | No | No | 
O=C(CN1C(=O)C(=O)N(Cc2ccccc2)C1=O)c1ccc(Br)cc1 [Formula 3, 1-benzyl-3-(2-(4-bromophenyl)-2-oxoethyl)imidazolidine-2,4,5-trione] | No | No | 
O=C(CN1C(=O)C(=O)N(Cc2ccccc2)C1=O)c1ccc2c(c1)OCCO2 [Formula 4, 1-benzyl-3-(2-(2,3-dihydrobenzo[b][1,4]dioxin-6-yl)-2-oxoethyl)imidazolidine-2,4,5-trione] | No | No | 
COc1ccc(C(=O)CN2C(=O)C(=O)N(Cc3ccccc3)C2=O)c(OC)c1 [Formula 5, 1-benzyl-3-(2-(2,4-dimethoxyphenyl)-2-oxoethyl)imidazolidine-2,4,5-trione] | No | No | 
O=C(CN1C(=O)C(=O)N(CCc2cccs2)C1=O)c1ccccc1 [Formula 6, 1-(2-oxo-2-phenylethyl)-3-(2-(thiophen-2-yl)ethyl)imidazolidine-2,4,5-trione] | No | No | 
O=C(CN1C(=O)C(=O)N(CCc2cccs2)C1=O)c1ccc2c(c1)OCO2 [Formula 7, 1-(2-(benzo[d][1,3]dioxol-5-yl)-2-oxoethyl)-3-(2-(thiophen-2-yl)ethyl)imidazolidine-2,4,5-trione] | No | No | 
O=C(CN1C(=O)C(=O)N(Cc2ccccc2)C1=O)c1ccc2c(c1)OCCCO2 [Formula 8, 1-benzyl-3-(2-(3,4-dihydro-2H-benzo[b][1,4]dioxepin-7-yl)-2-oxoethyl)imidazolidine-2,4,5-trione] | No | Weak PAM | 
N#Cc1cccc(NC(=O)CN2C(=O)C(=O)N(Cc3ccccc3)C2=O)c1 [Formula 9, 2-(3-benzyl-2,4,5-trioxoimidazolidin-1-yl)-N-(3-cyanophenyl)acetamide] | No | No | 
COc1ccccc1C(=O)CN1C(=O)C(=O)N(Cc2cccs2)C1=O [Formula 10, 1-(2-(2-methoxyphenyl)-2-oxoethyl)-3-(thiophen-2-ylmethyl)imidazolidine-2,4,5-trione] | No | No | 
O=C(CN1C(=O)C(=O)N(CCc2cccs2)C1=O)c1cccc2ccccc12 [Formula 11, 1-(2-(naphthalen-1-yl)-2-oxoethyl)-3-(2-(thiophen-2-yl)ethyl)imidazolidine-2,4,5-trione] | No | No | 
O=C(CN1C(=O)C(=O)N(Cc2ccccc2)C1=O)c1ccc(Cl)s1 [Formula 12, 1-benzyl-3-(2-(5-chlorothiophen-2-yl)-2-oxoethyl)imidazolidine-2,4,5-trione] | No | Weak PAM | 
O=C1C(=O)N(Cc2ccccc2)C(=S)N1Cc1ccccc1 [Formula 13, 1,3-dibenzyl-2-thioxoimidazolidine-4,5-dione] | No | No | 
CCCC(CCC)NC(=O)c1ccc2c(c1)OCO2 [Formula 14, N-(heptan-4-yl)benzo[d][1,3]dioxole-5-carboxamide] | Yes | Yes | 
COC(=O)[C@H](Cc1ccccc1)NCc1ccccc1.Cl [Formula 15, N-Benzyl-L-phenylalanine methyl ester hydrochloride] | Yes | Yes | 
COC(=O)[C@@H](Cc1ccccc1)NCc1ccccc1.Cl [Formula 16, N-Benzyl-D-Phenylalanine methyl ester hydrochloride] | Yes | Yes | 
COC(=O)[C@H](CC(C)C)NCc1ccccc1.Cl [Formula 18, Benzyl-L-leucine methyl ester hydrochloride] | Yes | Yes | 
COC(=O)C(NCc1ccccc1)c1ccccc1 (stereo not shown) [Formula 19, Methyl-2-benzylamino-2-phenylacetate] | Yes | Yes | 
Cl.N[C@@H](Cc1ccccc1)C(=O)OCc1ccccc1 [Formula 20, L-Phenylalanine benzyl ester hydrochloride] | Yes | Yes | 
N[C@@H](Cc1ccc(O)cc1)C(=O)OCc1ccccc1 [Formula 21, L-Tyrosine benzyl ester] | No | No | 
O=C(O)[C@H](Cc1ccc(O)cc1)NCc1ccccc1 [Formula 22, N-Benzyl-L-Tyrosine] | No | No | 
Cc1ccc(CNC(Cc2ccccc2)C(=O)O)cc1 (stereo not shown) [Formula 23, 2-((4-methylbenzyl)amino)-3-phenylpropanoic acid] | No | No | 
O=C1CC(=O)N(Cc2ccccc2)C(=O)N1Cc1ccccc1 [Formula 24, 1,3-dibenzylpyrimidine-2,4,6(1H,3H,5H)-trione] | Yes | No | 
Cl.N[C@@H](Cc1ccccc1)C(=O)OCc1ccccc1 [L-Phenylalanine benzyl ester hydrochloride] |  |  | agonist profile assessment (agonist activity) (T1R1/T1R3 receptor [1]): agonist; PAM profile assessment (PAM activity) (T1R1/T1R3 receptor [3]): PAM activity
COC(=O)C(NCc1ccccc1)c1ccccc1 (stereo not shown) [Methyl-2-benzylamino-2-phenylacetate] |  |  | agonist profile assessment (agonist activity) (T1R1/T1R3 receptor [1]): agonist; PAM profile assessment (PAM activity) (T1R1/T1R3 receptor [3]): PAM activity
